Blank lines part the entries; values can stand above or below the molecule they belong to.
Assays:
[1] = target: T1, Dual specificity mitogen-activated protein kinase kinase 6 (Homo sapiens) (UniProt P52564); experiment: Selectivity interaction (Millipore kinase profiler) EUB0000124b MAP2K6; details: at 10 µM
T1 sequence (whole entry): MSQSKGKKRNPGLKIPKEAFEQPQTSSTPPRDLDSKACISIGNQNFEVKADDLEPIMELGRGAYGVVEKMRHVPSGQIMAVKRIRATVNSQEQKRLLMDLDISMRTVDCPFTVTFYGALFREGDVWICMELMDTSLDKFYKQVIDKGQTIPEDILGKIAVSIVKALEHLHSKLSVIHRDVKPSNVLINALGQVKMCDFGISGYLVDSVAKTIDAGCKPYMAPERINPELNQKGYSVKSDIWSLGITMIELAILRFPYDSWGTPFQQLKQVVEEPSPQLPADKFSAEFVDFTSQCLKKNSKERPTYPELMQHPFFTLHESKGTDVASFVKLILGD

[2] = target: Serine/threonine-protein kinase PRP4 homolog (Homo sapiens) (UniProt Q13523); experiment: Selectivity interaction (ActivX KiNativ screen (kinase selectivity in THP-1 cell lysates)) EUB0000639a PRPF4; format: subcellular; details: lysate, at 0.01 µM
Chain of Serine/threonine-protein kinase PRP4 homolog (Homo sapiens) (Q13523 whole entry): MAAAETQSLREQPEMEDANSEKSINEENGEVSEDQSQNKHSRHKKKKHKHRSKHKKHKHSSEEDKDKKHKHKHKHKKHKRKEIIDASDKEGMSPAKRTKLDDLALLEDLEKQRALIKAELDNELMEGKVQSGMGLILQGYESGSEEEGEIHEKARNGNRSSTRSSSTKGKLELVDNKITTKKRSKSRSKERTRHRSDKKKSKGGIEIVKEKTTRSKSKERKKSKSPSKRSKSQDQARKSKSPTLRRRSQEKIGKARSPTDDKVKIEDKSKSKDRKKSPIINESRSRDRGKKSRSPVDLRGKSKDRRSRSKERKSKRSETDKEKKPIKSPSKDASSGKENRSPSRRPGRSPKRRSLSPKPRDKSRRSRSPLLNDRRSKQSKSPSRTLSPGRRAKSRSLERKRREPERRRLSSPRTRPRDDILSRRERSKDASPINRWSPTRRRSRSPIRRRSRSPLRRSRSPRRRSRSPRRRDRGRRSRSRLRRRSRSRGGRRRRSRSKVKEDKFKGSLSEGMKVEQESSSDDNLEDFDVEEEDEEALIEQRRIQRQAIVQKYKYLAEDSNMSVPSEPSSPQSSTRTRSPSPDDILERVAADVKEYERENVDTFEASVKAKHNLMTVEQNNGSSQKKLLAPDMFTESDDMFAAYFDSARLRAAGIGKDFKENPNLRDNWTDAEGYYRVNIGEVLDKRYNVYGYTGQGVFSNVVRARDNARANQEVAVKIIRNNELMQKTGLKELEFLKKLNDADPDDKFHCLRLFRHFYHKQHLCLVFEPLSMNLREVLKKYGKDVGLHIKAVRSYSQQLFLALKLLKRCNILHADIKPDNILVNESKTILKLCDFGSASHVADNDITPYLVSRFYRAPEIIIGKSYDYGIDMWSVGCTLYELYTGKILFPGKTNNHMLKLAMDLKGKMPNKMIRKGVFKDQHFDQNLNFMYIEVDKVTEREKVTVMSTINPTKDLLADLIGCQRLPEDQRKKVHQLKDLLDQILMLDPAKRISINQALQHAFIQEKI

[3] = target: Endothelin-1 receptor (Homo sapiens, UniProt P25101); experiment: Selectivity interaction (Endothelin A receptor binding assay, human recombinant ) EUB0000877a EDNRA
Chain of Endothelin-1 receptor (P25101 whole entry): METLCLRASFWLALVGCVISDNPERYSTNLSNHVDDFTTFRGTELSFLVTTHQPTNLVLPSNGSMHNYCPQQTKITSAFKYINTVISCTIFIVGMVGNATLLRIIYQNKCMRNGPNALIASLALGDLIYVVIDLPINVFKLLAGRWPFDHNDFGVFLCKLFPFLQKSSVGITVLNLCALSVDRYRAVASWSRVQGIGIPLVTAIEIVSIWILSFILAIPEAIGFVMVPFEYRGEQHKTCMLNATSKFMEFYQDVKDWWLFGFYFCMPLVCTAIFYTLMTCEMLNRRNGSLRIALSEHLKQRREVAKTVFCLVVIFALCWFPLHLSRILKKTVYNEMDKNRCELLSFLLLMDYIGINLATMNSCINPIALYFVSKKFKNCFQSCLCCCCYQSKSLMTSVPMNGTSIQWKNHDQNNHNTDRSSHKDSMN

[4] = target: T2, Tyrosine-protein kinase receptor TYRO3 (Homo sapiens) (UniProt Q06418); experiment: Selectivity interaction (KinomeScan (DiscoverX)) EUB0000595a TYRO3; details: at 10 µM
T2 sequence (whole entry): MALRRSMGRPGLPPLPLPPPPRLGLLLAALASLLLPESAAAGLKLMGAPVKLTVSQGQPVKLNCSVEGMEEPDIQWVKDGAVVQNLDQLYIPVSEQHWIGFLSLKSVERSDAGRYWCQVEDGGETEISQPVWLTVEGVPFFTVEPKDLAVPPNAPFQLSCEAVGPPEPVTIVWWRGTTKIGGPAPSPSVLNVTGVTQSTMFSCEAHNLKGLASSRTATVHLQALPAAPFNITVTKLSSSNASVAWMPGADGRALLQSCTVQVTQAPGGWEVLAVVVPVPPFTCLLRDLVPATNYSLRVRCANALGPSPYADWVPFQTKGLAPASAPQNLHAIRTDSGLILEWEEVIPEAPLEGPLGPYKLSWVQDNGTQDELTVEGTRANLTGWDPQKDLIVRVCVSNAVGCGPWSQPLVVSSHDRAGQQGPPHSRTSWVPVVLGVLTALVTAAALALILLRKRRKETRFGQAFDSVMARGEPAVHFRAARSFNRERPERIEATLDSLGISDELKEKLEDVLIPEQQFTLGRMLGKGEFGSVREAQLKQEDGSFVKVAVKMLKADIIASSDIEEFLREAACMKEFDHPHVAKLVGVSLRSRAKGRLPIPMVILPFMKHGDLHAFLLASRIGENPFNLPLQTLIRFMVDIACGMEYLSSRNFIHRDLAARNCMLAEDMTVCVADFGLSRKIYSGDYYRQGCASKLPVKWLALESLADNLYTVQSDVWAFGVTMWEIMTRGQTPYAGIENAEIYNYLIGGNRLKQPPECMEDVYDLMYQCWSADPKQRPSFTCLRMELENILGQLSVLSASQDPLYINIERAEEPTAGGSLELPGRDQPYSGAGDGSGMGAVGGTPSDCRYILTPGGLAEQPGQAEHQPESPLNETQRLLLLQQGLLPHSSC

[5] = target: Serine/threonine-protein kinase SIK3 (Homo sapiens) (UniProt Q9Y2K2); experiment: Selectivity interaction (ProQinase) EUB0000171b SIK3
Chain of Serine/threonine-protein kinase SIK3 (Homo sapiens) (Q9Y2K2 whole entry, looked up): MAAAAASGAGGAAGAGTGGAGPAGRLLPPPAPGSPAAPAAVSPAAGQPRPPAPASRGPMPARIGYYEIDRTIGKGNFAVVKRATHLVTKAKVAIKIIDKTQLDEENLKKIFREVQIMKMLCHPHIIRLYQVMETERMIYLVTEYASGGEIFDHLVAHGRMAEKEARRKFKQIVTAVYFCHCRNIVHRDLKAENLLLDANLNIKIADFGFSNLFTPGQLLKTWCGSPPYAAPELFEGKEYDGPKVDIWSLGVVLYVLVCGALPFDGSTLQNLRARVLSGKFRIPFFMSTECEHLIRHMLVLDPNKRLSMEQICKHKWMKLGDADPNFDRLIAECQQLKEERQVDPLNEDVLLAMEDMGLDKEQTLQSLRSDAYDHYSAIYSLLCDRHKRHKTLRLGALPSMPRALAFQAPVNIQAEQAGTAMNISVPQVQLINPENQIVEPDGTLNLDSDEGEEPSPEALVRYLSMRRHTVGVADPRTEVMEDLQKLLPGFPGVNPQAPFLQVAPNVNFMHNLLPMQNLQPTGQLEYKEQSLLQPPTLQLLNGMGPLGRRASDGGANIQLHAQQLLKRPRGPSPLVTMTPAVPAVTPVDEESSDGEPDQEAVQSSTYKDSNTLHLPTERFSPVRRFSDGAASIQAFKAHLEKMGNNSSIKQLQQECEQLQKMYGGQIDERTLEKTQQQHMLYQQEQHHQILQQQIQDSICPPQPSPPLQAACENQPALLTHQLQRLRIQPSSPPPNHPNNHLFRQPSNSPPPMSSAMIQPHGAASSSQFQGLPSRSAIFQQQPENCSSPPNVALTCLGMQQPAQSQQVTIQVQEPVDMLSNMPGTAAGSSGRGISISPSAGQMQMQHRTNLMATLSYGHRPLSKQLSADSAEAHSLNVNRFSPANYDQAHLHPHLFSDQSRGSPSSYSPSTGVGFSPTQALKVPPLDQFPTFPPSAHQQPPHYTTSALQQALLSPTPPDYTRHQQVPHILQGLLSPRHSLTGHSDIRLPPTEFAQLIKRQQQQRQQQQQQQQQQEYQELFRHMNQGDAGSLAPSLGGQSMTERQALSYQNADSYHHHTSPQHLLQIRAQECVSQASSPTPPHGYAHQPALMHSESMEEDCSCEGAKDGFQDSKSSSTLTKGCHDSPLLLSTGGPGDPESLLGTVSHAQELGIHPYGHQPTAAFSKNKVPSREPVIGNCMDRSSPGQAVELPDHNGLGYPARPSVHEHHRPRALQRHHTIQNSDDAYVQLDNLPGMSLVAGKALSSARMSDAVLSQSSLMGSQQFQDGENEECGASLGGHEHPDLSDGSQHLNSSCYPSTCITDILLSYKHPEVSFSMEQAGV

[6] = target: Ribosomal protein S6 kinase alpha-3 (Homo sapiens, UniProt P51812); experiment: Selectivity interaction (ActivX KiNativ screen (ex vivo kinase selectivity in human PBMCs)) EUB0001619a RPS6KA3; format: cell-based; details: PBMC, at 1 µM
[7] = target: Calcium/calmodulin-dependent protein kinase type 1G (Homo sapiens) (UniProt Q96NX5); experiment: Selectivity interaction (KinomeScan (DiscoverX)) EUB0000618a CAMK1G; details: at 10 µM
Chain of Calcium/calmodulin-dependent protein kinase type 1G (Homo sapiens) (Q96NX5 whole entry): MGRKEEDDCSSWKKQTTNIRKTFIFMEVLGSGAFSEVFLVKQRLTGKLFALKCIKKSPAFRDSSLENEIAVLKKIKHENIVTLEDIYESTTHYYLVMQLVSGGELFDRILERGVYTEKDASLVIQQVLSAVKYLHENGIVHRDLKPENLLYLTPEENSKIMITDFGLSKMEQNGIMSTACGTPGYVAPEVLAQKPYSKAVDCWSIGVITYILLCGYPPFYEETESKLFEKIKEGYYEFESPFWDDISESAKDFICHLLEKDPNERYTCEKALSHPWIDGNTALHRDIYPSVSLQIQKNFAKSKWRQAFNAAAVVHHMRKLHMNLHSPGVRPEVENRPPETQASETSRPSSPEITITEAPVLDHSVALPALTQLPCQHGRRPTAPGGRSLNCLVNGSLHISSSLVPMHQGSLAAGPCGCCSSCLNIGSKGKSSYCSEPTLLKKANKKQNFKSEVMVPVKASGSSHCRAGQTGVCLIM

[8] = target: Vascular endothelial growth factor receptor 3 (Homo sapiens, UniProt P35916); experiment: Selectivity interaction (KinomeScan (DiscoverX)) EUB0000666a FLT4; details: at 10 µM
Chain of Vascular endothelial growth factor receptor 3 (P35916 whole entry): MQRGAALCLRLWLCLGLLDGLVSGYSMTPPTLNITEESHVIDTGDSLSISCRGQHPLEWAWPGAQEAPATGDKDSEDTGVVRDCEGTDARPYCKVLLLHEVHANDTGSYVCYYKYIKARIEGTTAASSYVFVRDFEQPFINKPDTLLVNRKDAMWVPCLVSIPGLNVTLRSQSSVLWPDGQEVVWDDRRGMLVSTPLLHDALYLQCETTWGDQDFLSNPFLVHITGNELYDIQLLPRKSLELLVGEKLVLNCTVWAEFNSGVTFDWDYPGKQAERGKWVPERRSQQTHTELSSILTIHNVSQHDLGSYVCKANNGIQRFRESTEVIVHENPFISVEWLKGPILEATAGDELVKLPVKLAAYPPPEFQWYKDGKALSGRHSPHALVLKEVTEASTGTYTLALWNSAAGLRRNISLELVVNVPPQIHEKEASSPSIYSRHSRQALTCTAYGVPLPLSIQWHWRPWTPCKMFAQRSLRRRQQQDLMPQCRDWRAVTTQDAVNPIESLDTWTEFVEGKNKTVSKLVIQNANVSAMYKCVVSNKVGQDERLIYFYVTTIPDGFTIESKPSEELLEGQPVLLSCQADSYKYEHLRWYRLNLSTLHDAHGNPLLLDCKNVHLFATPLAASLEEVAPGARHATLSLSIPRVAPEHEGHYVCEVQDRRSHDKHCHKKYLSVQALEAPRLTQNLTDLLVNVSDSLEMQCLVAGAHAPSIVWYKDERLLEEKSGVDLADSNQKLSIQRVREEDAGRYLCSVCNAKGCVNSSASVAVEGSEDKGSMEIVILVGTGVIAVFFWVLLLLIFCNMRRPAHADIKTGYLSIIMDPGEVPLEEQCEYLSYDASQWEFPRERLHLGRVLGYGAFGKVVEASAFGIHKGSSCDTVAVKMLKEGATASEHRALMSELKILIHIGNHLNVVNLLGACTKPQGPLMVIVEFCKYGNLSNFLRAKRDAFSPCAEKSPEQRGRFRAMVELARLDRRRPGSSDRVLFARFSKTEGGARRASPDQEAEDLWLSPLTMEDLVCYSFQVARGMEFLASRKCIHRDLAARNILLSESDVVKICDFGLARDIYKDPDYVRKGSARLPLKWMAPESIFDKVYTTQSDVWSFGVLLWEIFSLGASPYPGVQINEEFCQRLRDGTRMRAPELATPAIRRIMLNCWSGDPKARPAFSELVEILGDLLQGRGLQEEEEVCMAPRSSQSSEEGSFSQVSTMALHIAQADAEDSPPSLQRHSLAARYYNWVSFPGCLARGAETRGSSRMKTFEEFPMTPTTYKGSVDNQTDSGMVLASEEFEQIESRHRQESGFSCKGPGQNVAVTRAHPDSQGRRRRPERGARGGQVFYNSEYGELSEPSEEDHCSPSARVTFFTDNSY

[9] = target: Mu-type opioid receptor (Homo sapiens, UniProt P35372); experiment: Selectivity interaction (Panel of kinases, GPCRs, ion channels and transporters (enzymatic assay)) EUB0000223bCl OPRM1
Chain of Mu-type opioid receptor (P35372 whole entry): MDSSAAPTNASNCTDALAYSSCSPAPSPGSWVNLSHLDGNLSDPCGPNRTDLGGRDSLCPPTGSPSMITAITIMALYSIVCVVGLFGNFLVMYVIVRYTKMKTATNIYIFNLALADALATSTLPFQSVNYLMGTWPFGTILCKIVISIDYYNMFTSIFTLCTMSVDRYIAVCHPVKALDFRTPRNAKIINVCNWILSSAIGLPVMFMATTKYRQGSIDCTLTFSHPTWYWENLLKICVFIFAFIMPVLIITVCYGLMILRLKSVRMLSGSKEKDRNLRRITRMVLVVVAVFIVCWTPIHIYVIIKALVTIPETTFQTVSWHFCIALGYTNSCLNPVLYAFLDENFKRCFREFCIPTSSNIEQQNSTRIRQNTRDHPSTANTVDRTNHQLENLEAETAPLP

% of control [1]: 70%
SMILES: CC(=O)Nc1cccc(-n2c(=O)n(C3CC3)c(=O)c3c(Nc4ccc(I)cc4F)n(C)c(=O)c(C)c32)c1

% of inhibition [2]: 15.8%
SMILES: CC[C@@H]1[C@H](F)C(=O)N[C@@H]1COc1nccc2cc(C(N)=O)c(OC)cc12 [ZIMLOVISERTIB]

IC50 [3]: > 30 µM
SMILES: CCC(=O)N1CC[C@H](Nc2ncnc3c2CN(c2cnc(OC)c(C(F)(F)F)c2)CC3)C1 [LENIOLISIB]

SMILES: COCC(=O)NC/C=C/c1ccc2ncnc(Nc3ccc(Oc4ccc(C)nc4)c(C)c3)c2c1 [CP-724714]
% of control [4]: 80%

% of control ([5]; at 1 µM): 65% | % of control ([5]; at 5 µM): 47%
SMILES: C=CC(=O)Nc1cccc(C(=O)Nc2ccc(Nc3cc(-c4[nH]c(SC)nc4C)ccn3)cc2)c1

SMILES: N#Cc1cccc(-c2c[nH]c3ncnc(N4CCOCC4)c23)c1
% of inhibition [6]: 6%

SMILES: O[C@H]1CC[C@H](Nc2ncc3nc(Nc4c(F)cc(F)cc4F)n([C@H]4CCOC4)c3n2)CC1
% of control [7]: 100%

SMILES: O=C(NOC[C@H](O)CO)c1ccc(F)c(F)c1Nc1ccc(I)cc1F
% of control [8]: 94%

SMILES: COc1cc(C(=O)N2CC[C@@H](O)[C@@H](N)C2)cc2nc(-c3cc4ccccc4n3CC3CC3)n(C)c12
pXC50 [9]: < 4 M

From ChEMBL document CHEMBL5465560, “Selectivity Literature for EUbOPEN Chemogenomic Library” (2024)
